For one data set, the system named is ASC52telo hTERT cells. The data set can be described thus: in vitro osteogenesis model (ALP activity, von Kossa staining). It is filed as cell-based, human. The following applies: osteogenic differentiation over 15 days, dark or Cell‐Disco (370 nm, 100 ms/10 s). The procedure: FIGURE 3 Optical control of VDR activity with photo‐vitD (10). (a) 10 (1 µM) enabled light‐dependent in‐cell activation of VDR in a fluorescent (mCherry) reporter gene assay. Gray curve: dark; blue curve: Cell‐Disco (370 nm; 100 ms/10 s); yellow curve: dark for 10 h, then Cell‐Disco (370 nm); magenta curve: Cell‐Disco (370 nm) for 10 h, then Cell‐Disco (450 nm). Lines are the mean, shadows are S.E.M.; n = 6. (b–d) Phenotypic model of bone formation using human […] (ASC52telo hTERT cells) and cyclic treatment with dexamethasone, 2‐phospho‐L‐ascorbic acid, and glycerol 2‐phosphate over 15 days to induce osteogenesis. Alkaline phosphatase (ALP) activity (b) and von Kossa staining of hydroxyapatite (c; representative photomicrographs in d) were used as markers of osteogenesis. Experiments were performed in the dark (gray bars) and using a Cell‐Disco (370 nm, 100 ms/10 s; blue bars). Data are the mean±SD, n = 6. * p<0.05, ** p<0.01, *** p<0.001 (vs. respective dark or illuminated DMSO (diff.) ctrl or as indicated; ANOVA with Dunnett's multiple comparisons test).
Photo‐vitD (10) thus appeared suitable for application as tool for VDR control in complex phenotypic settings. […] Photo‐vitD (10) thus enabled bidirectional optical control of osteogenesis in cellulo based on its ability to switch between agonist and antagonist states. […]
experiment was repeated independently three times. CellDiscos[9] were used for pulsed irradiation at 370 nm or 450 nm to switch 10 between photostationary states. The live cells were assayed for fluorescence reporter intensity at multiple time points over 36 h. Fluorescence intensity (FI) was measured (λex 585/10 nm, λem 610/10 nm) in bottom reading mode with a Tecan Spark Cyto (Tecan Deutschland GmbH).
Fold FI was obtained by dividing the mean F I of a test sample by the mean FI of the untreated control of the respective measurement (time point).
In vitro osteogenesis model. […] Absorbance was measured at 410 nm for 60 min every 5 min with an increase in absorbance reflecting phosphatase activity (nmol/min). For quantification via linear […]

The nature of data set [1]: photophysical characterization (photo‐switching, thermal relaxation). It is filed as physicochemical. The settings on record: room temperature (∼21°C); pre‐illuminated at 365 nm for 30 min, then dark; (E)/(Z) ratios by NMR. As for the experimental part:
FIGURE 2 Development and characterization of the light‐activated vitamin D mimetic photo‐vitD (10). (a) Structure activity relationship of photo‐switchable VDR agonists 4–10. Compounds were tested in a cellular Gal4‐VDR hybrid reporter gene assay. Relative activation is normalized to the effect of 2 (1 µM) set as 100% activation. The (Z)‐states of the compounds were maintained with a Cell‐Disco [24] (370 nm). […] Data in agonist (EC50) and antagonist mode (IC50; vs. 0.3 µM 2) are shown for (E)‐ and (Z)‐10. The corresponding dose‐response curves are shown in (d). (b) Predicted binding mode of (E)‐7 (green) in the VDR ligand binding site (pdb ID 4g1d). […] (c) Predicted binding mode of (Z)‐10 (yellow) in the VDR ligand binding site. The altered regiochemistry conveys strong preference for the light‐induced (Z)‐configuration and the extended naphthoic acid motif enables a strong ionic contact to R302. (d) Dose‐response curves of (E)‐ (dark) and (Z)‐10 (370 nm) in the Gal4‐VDR reporter gene assay in agonist (top) and antagonist mode (bottom, with 0.3 µM calcitriol (2)). (Z)‐10 activated VDR; (E)‐10 and (Z)‐10 antagonized VDR activation by 0.3 µM calcitriol (2). (Z)‐10 was maintained with a Cell‐Disco [24] (370 nm). […] Absorbance was measured at 351 nm with a 25 µM solution in DMSO, one cycle is 30 sec. […] (E)/(Z) ratios were measured by NMR. […]

The target of the next data set is T1, VDR (Homo sapiens, UniProt P11473).
T1 construct: -CMV-VDR-LBD coding for the hinge region and; expressed in transfected cells; host or cells: HEK293T
T1 sequence (P11473 127-423 limits assumed): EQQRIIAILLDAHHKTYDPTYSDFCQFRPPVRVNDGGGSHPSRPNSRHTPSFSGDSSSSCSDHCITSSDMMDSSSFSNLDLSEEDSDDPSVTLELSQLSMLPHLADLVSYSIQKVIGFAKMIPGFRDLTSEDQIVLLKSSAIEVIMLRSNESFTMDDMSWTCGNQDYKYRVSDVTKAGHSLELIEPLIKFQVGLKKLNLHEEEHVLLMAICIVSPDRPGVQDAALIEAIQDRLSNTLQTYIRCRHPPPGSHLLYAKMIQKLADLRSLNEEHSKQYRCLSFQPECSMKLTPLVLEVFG
Description: Gal4‐VDR hybrid reporter gene assay, agonist mode. Format: cell-based. The settings on record: for EC50: HEK293T cells, mean±S.E.M., n≥3. The procedure: FIGURE 2 Development and characterization of the light‐activated vitamin D mimetic photo‐vitD (10). (a) Structure activity relationship of photo‐switchable VDR agonists 4–10. Compounds were tested in a cellular Gal4‐VDR hybrid reporter gene assay. Relative activation is normalized to the effect of 2 (1 µM) set as 100% activation. The (Z)‐states of the compounds were maintained with a Cell‐Disco [24] (370 nm). […] Data in agonist (EC50) and antagonist mode (IC50; vs. 0.3 µM 2) are shown for (E)‐ and (Z)‐10. The corresponding dose‐response curves are shown in (d). (b) Predicted binding mode of (E)‐7 (green) in the VDR ligand binding site (pdb ID 4g1d). […] (c) Predicted binding mode of (Z)‐10 (yellow) in the VDR ligand binding site. The altered regiochemistry conveys strong preference for the light‐induced (Z)‐configuration and the extended naphthoic acid motif enables a strong ionic contact to R302. (d) Dose‐response curves of (E)‐ (dark) and (Z)‐10 (370 nm) in the Gal4‐VDR reporter gene assay in agonist (top) and antagonist mode (bottom, with 0.3 µM calcitriol (2)). (Z)‐10 activated VDR; (E)‐10 and (Z)‐10 antagonized VDR activation by 0.3 µM calcitriol (2). (Z)‐10 was maintained with a Cell‐Disco [24] (370 nm). Data are the mean±S.E.M. relative VDR act. vs. 0.3 µM calcitriol (2), n≥3. (e) Activity profile of 10 (1 µM) on nuclear receptors showing exclusive VDR activation by the light‐activated state. 10 was tested in a panel of uniform Gal4‐NR hybrid reporter gene assays. (Z)‐10 was maintained with a Cell‐Disco [24] (370 nm). Data are the mean±SD, n = 3. (f) Representative UV/Vis spectra of 10 as (E)‐ (dark) and (Z)‐states (PSS 365 nm), and after switching back to (E) with 465 nm. (g) (E)/(Z)‐ratios of 10 in the dark‐adapted state, after illumination at 365 nm for 5 min and after switching back from mostly‐(Z) with 465 nm for 5 min. (h) 10 could be rapidly and reversibly switched between the (E)‐ and (Z)‐states over multiple cycles by alternating irradiation at 365 and 465 nm. Absorbance was measured at 351 nm with a 25 µM solution in DMSO, one cycle is 30 sec. […] 10 was pre‐illuminated at 365 nm for 30 min and then kept in the dark. (E)/(Z) ratios were measured by NMR. (j) Binding mode prediction of (E)‐ and (Z)‐10 to the VDR‐antagonist complex 2zxm (residues numbered according to [21]). (Z)‐10 (yellow) forms an agonist‐like binding mode with several polar interactions at both ends of the pocket. (E)‐10 (cyan) is also anchored at the distal end of the pocket by an H‐bond network with R302 and the D176 backbone but due to the (E)‐configuration, the β‐naphthoic acid residue protrudes deeper and the pentan‐3‐ol motif rotates away from H333/H423. Therefore, (E)‐10 lacks stabilizing/activating contacts with the H333/H423 region rationalizing its antagonist properties.
Gal4-hybrid reporter gene assays. Reporter gene assays were performed in HEK293T cells (German Collection of Microorganisms and Cell Culture GmbH, DSMZ) as reported previously using Gal4 -NR LBD fusion receptor plasmids each coding for the hinge region and LBD of the canonical isoform of the respective human nuclear receptor.[7,8] pFR-Luc (Stratagene, La Jolla, CA, USA) served as a reporter plasmid and pRL-SV40 (Promega, Madison, WI, USA) was used for normalization of transfection efficiency and test compound toxicity. Cells were cultured in Dulbecco’s modified Eagle’s medium (DMEM), high glucose supplemented with 10% fetal calf serum (FCS), sodium pyruvate (1 mM), penicillin (100 U/mL), and streptomycin (100 μg/mL) at 37 °C and 5% CO2, and seeded in 96-well plates (3 × 10^4 cells/well). After 24 h, the medium was changed to Opti -MEM without supplements, and cells were transiently transfected using Lipofectamine LTX reagent (Invitrogen, Carlsbad, CA, USA) according to the manufacturer’s protocol. Five hours after transfection, cells were incubated with the test compounds […]
(In general: In a reporter assay the amount or activity of a reporter protein is the signal.)

[2] abbreviates: (Z)‐state maintained with Cell‐Disco (370 nm), read-out: VDR modulation light-activated (Z): EC50.
Where [3] appears, read: dark‐adapted (E)‐state, read-out: VDR modulation dark (E): EC50.

Where two headings read alike, the source gives them in different places.

As for `CCCc1cc(C(O)(CC)CC)ccc1-c1ccc(/N=N/c2ccc3cc(C(=O)O)ccc3c2)cc1C` [(E)‐10], the “effect on osteogenesis (ALP activity, von Kossa staining positive area)” value (from here on “effect on osteogenesis”) in the data set with ASC52telo hTERT cells was “promoted osteogenesis”. In the case of `CCCc1cc(C(O)(CC)CC)ccc1-c1ccc(/N=N\c2ccc3cc(C(=O)O)ccc3c2)cc1C` [(Z)‐10], in data set [1], the “thermal relaxation half‐life” value is on record as 29 h. In the data set on ASC52telo hTERT cells, the “effect on osteogenesis” value is reported as “resembled the effects of calcitriol with weaker efficacy”. For the compound `C=C1/C(=C\C=C2/CCC[C@]3(C)[C@@H]([C@H](C)CCCC(C)(C)O)CC[C@@H]23)C[C@@H](O)C[C@@H]1O` [compound 2, 1,25‐dihydroxyvitamin D, reference compound], in the data set with ASC52telo hTERT cells, the “effect on osteogenesis” value is “counteracted bone formation”. As a reminder, the EC50 is the concentration needed to bring the measured effect to its halfway point. With `CCCc1cc(C(O)(CC)CC)ccc1-c1cc(/N=N/c2ccc(CO)c(CO)c2)ccc1C` [compound 4], the 50% effective concentration (EC50) at VDR (setting [2]) came to 140 ± 300 nM; on VDR (setting [3]), 600 ± 200 nM. The “activity difference between the dark‐adapted (E)‐ and the light‐induced (Z)‐isomers” value at VDR (VDR agonism, (E) vs (Z)) is given as 4 fold. Consider `CCC(O)(CC)c1ccc(-c2cc(/N=N/c3ccc(CO)c(CO)c3)ccc2C)c(C)c1` [compound 5], for which the figures for the EC50 on VDR (setting [2]) and on VDR (setting [3]) were 920 ± 60 nM and 1000 ± 200 nM, respectively. For the compound `CCCCc1cc(C(O)(CC)CC)ccc1-c1cc(/N=N/c2ccc(CO)c(CO)c2)ccc1C` [compound 6], the concentration for a half-maximal effect (EC50) was 1100 ± 200 nM on VDR (setting [2]) and 1800 ± 300 nM on VDR (setting [3]). The corresponding values for `CCCc1cc(C(O)(CC)CC)ccc1-c1cc(/N=N/c2ccc(C(=O)O)c(O)c2)ccc1C` [compound 7] are 310 ± 40 nM and 500 ± 100 nM. For `CCCc1cc(C(O)(CC)CC)ccc1-c1ccc(/N=N/c2ccc(C(=O)O)c(O)c2)cc1C` [compound 8], the results for the 50% effective concentration (EC50) on VDR (setting [2]) and on VDR (setting [3]) were 1400 ± 200 nM and above 10000 nM, respectively.

With `CCCc1cc(C(O)(CC)CC)ccc1-c1ccc(/N=N/c2ccc3[nH]c(=O)[nH]c3c2)cc1C` [compound 9], the “VDR modulation light-activated (Z): activation in words” value at VDR ((Z)‐state, Cell‐Disco (370 nm), 10 μM, inactive = no statistically significant activation at the indicated concentration) is recorded as “failed to activate VDR”. For the same compound, the “VDR modulation dark (E): activation in words” value at VDR (dark‐adapted (E)‐state, 10 μM, inactive = no statistically significant activation at the indicated concentration) is “failed to activate VDR”.

The values are drawn from paper PMC13360702, “An Agonist/Antagonist Photo‐Switchable Vitamin D Mimetic Enables Bidirectional Optical Control of VDR” (Angewandte Chemie (International Ed. in English), 2026).
